Data taken from US8450502B2, “Pharmaceutical compositions for inhibiting angiogenesis” (Industry-Academic Cooperation Foundation Yonsei University, priority 2008, dated 2013).

How the values were obtained:
[1] = tested on: human umbilical vein endothelial cells (HUVEC); assay: HUVEC invasion assay (Transwell, VEGF); assay type: cell-based; settings: VEGF 30 ng/mL, HDNT 2.5, 5 μM, 18 hours
Experimental: Invasion of human umbilical vein endothelial cells (HUVEC) was measured in vitro using a TRANSWELL® chamber system (Corning Costar) equipped with a polycarbonate filter. First, a lower part of the filter was coated with 10 μl of gelatin (10 mg/mL) for 1 hour, and an upper part of the filter was coated with 10 μl of MATRIGEL® (3 mg/mL) for 2 hours. […] The coated filter was placed on the TRANSWELL®, and HUVECs (1×10^5 cells/well) were inoculated on the upper part of the filter, followed by cell culture in an incubator for 18 hours. Then, the cells were fixed with 70% methanol and stained with hematoxylin/eosin. Total cells in one filter were microscopically counted to measure a degree of cell invasion (see FIG. 4).

[2] = tested on: mitochondrial membrane potential of HUVECs; assay: Determination of mitochondrial membrane potential (JC-1 staining); assay type: cell-based, human; settings: HUVEC, HDNT 1, 5, 10 μM, 4 hours
Experimental: Human umbilical vein endothelial cells (HUVEC) were seeded on a 24-well plate (2×10^4 cells/well) and cultured in EBM-2 (LONZA®) medium containing 10% fetal bovine serum (INVITROGEN®). Then, the cells were washed with PBS buffer (pH 7.4) and the culture medium was then replaced with a fresh one. The inventive compound HDNT (1, 5, 10 μM) was added to the culture medium and the cells were incubated for 4 hours. In order to measure changes of the mitochondrial membrane potential, the cells were stained with […] a lipophilic cationic probe 5,5′6,6′-tetrachloro-1,1′,3,3′-tetraethylbenzimidazole-carbocyanine iodide (JC-1, MOLECULAR PROBES®) for 15 min. The carbocyanine cationic dye forms a red fluorescent J-aggregate at a hyperpolarization membrane potential (to −140 mV), and the dye maintains a green fluorescent monomeric form at a depolarization membrane potential (to −100 mV). The stained cells were washed twice with PBS buffer. A microscopic image (×100) was obtained under an IX70 fluorescent microscope OLYMPUS®) (see FIG. 5).

[3] = molecular target: T1, mitochondrial protein QP-C (Homo sapiens, UniProt P14927); assay: Competitive binding assay by fluorescent staining in HUVECs; assay type: cell-based; settings: for Inhibition of binding between coumarin-terpestacin and QP-C (blue fluorescence in the cytoplasm): HUVEC, pretreatment 24 hours with HDNT 10 μM or terpestacin 30 μM, coumarin-terpestacin 20 μM 2 hours
T1 construct: endogenous in cells; host or cells: HUVEC
T1 sequence (P14927 1-111): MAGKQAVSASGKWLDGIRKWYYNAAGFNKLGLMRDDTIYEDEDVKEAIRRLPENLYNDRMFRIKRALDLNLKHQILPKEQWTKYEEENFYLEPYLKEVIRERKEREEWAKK
Experimental: Human umbilical vein endothelial cells (HUVEC) were seeded on a 24-well plate (2×10^4 cells/well) and cultured in EBM-2 (LONZA®) medium containing 10% fetal bovine serum (INVITROGEN®). Then, the cells were washed with PBS buffer (pH 7.4), and the culture medium was replaced with a fresh one. The inventive compound HDNT (10 μM) or the compound terpestacin (30 μM) binding to QP-C was added to each well and the cells were incubated for 24 hours. A fluorescent dye coumarin (20 μM) and coumarin-conjugated terpestacin (20 μM) were each added to the control group and the treated group, followed by incubation for another 2 hours. The cells were washed with PBS buffer. Fluorescent intensity was observed under an IX70 fluorescent microscope (OLYMPUS®) and a microscopic image was taken (see FIG. 7).

[4] = tested on: QP-C-expressing bacteriophage T7 (human QP-C); assay: Competitive binding assay by phage display; settings: competitor 200 μM, biotinylated terpestacin 5 μM immobilized
Experimental: Bacteriophage T7 (NOVAGEN®) was purchased which encodes cDNA library obtained from live different human tissues (hepatoma, normal liver, dementia brain, normal brain, and normal stomach). A host cell E. coli BLT5615 was infected with Bacteriophage followed by amplification. Biotinylated terpestacin (5 μM) in TBS buffer (pH 7.5) was immobilized on a streptavidin-coated 96-well plate (Pierce Biotechnology), and then the amplified, bacteriophage T7 library (6×1.0^9 pfu/mL) was added to the terpestacin-immobilized wells. After being stirred at room temperature for 1 hour, bacteriophage T7 particles which were not hound to terpestacin were washed with TBS buffer to remove the non-bound bacteriophage T7 particles. Terpestacin-bound bacteriophage T7 particles were elated for 1 hour with addition of terpestacin (100 μM) dissolved in TBS buffer. The elated bacteriophage T7 particles were infected into E. coli strain BLT5615 cultured on LB agar medium. The thus-formed bacteriophage T7 plaques were isolated and DNA sequences were analyzed to obtain bacteriophage expressing a ubiquinone-binding protein (QP-C) of the mitochondria complex III.
QP-C-expressing bacteriophage T7 was infected into a host cell E. coli BLT5615, followed by amplification. […] The thus-formed bacteriophage plaques were counted and the results were compared between the treated group and the control group (see FIG. 6).

[5] = molecular target: T2, purified QP-C protein (Homo sapiens, UniProt P14927); assay: Competitive binding assay by surface plasmon resonance; settings: compound 25 μM, QP-C protein 25 μM, biotinylated terpestacin 100 μM immobilized
T2 construct: GST (N, cleaved yes); made in house; host or cells: E. coli BL21
T2 sequence (P14927 1-111): T1 sequence (P14927 1-111)
Experimental: Using, liver tissue cDNA library as a template, a QP-C gene (GENBANK® Accession No. NM_006294 was amplified by polymerase chain reaction (PCR). Sequences of PCR primers used herein are as follows: forward primer 5′-[…]-3′, and reverse primer 5′-[…]-3′. The QP-C gene was inserted into a multi cloning site (EcoRI/XhoI site) of a pGEX-4T1 vector (Amersham Pharmacia) which was then transformed into E. coli BL21 for protein expression, IPTG (1 mM) was added to the LB culture OD600=0.6) of the transformed bacteria, followed by shaking culture at 37° C. for 4 hours. The cells were disrupted using a sonicator and the expressed GST/QP-C fusion protein was purified by addition of glutathione agarose heads (SIGMA®). In order to remove a GST portion of the fusion protein, thrombin (Amersham Pharmacia) was added thereto at room temperature, followed by overnight stirring. Only the supernatant containing the QP-C protein was recovered by centrifugation (see FIG. 2). […]
The binding sensorgram containing association and dissociation curves was obtained by BIACORE® 2000, and 50 mM NaOH (5 μl) was poured on the sensor chip surface to result in regeneration. […] A surface plasmon resonance response curve was analyzed using BIACORE® Evaluations software, version 3.1 (see FIG. 8).

[6] = tested on: human umbilical vein endothelial cells (HUVEC); assay: Tube formation of human umbilical vein endothelial cells (VEGF-induced, Matrigel); assay type: cell-based; settings: VEGF 30 ng/mL, HDNT 2.5, 5 μM, 8 hours
Experimental: A 48-well plate was coated with 150 μl of Matrigel (10 mg/mL, Collaborative Biomedical Products), followed by polymerization at 37° C. for 2 hours. […] The cells were cultured in an incubator for 8 hours while observing morphological changes of the cells under a microscope.

[7] = tested on: embryonic chick chorioallantoic membrane (CAM); settings: cited from earlier work
[8] = tested on: human umbilical vein endothelial cells (HUVEC); settings: cited from earlier work
[9] = tested on: HIV; settings: cited from earlier work

Structure (SMILES) | VEGF-mediated invasion of HUVECs [1] | Change of mitochondrial membrane potential (JC-1 red/green fluorescence) [2] | Inhibition of binding between coumarin-terpestacin and QP-C (blue fluorescence in the cytoplasm) [3] | Inhibition of binding between biotinylated terpestacin and QP-C-expressing bacteriophage T7 [4] | Inhibition of the binding between biotin-terpestacin and QP-C protein [5] | VEGF-mediated tube formation of HUVECs [6] | Fluorescence staining of HUVECs ([3]; 20 μM, 2 hours) | Angiogenesis of embryonic chick chorioallantoic membrane (CAM) in vivo [7] | inhibition at 25 µM ([5]; read-out: Inhibition of the binding between biotin-terpestacin and QP-C protein) | Angiogenic responses of HUVEC in vitro [8] | Formation of syncytium during HIV infections [9]
O=C1Sc2ccc(S(=O)(=O)Nc3ccc(O)c4ccccc34)c3cccc1c23 [HDNT, 6-((1-hydroxynaphthalen-4-ylamino)dioxysulfone)-2H-naphtho[1,8-bc]thiophen-2-one] | inhibited VEGF-mediated tube formation and invasion of HUVECs in a concentration-dependent manner | disrupts the mitochondrial membrane potential | blue fluorescence was significantly decreased | effectively inhibited | 40% | inhibited VEGF-mediated tube formation and invasion of HUVECs in a concentration-dependent manner | – | – | – | – | –
C/C1=C/CC/C(C)=C/CC2(C)C(=O)C(O)=C(C(C)COC(=O)CCCCCNC(=O)CCCCCNC(=O)Cc3c(C)c4ccc(N)cc4oc3=O)C2C/C=C(\C)C(O)CC1 (stereo not shown) [coumarin-terpestacin] | – | – | – | – | – | – | intense blue fluorescence in the cytoplasm | – | – | – | –
C/C1=C\C[C@]2(C)C(=O)C(O)=C([C@H](C)CO)[C@H]2C/C=C(\C)[C@@H](O)CC/C(C)=C/CC1 [terpestacin] | – | – | significant attenuation of blue fluorescence | significantly inhibited | – | – | – | strongly inhibits angiogenesis | ≤ 60% | strongly inhibits angiogenic responses | inhibit the formation of syncytium
